Test results published in US20250114436A1, “DYNAMIC-COVALENT HYDROGELS WITH GLUCOSE-SPECIFIC AND GLUCOSE-RESPONSIVE DIBORONATE CROSSLINKING” (UNIVERSITY OF NOTRE DAME DU LAC, priority 2022, published 2025).

Key:
[1] = Acid-base titration for pKa determination; assay type: physicochemical; settings: small molecule
Description: A 0.01 M stock solution of the PBA of interest was prepared by dissolving 0.2 mmol of each PBA in 20 mL DI water. The solution was then titrated with 0.005 M NaOH solution under constant stirring with pH monitoring.
Previously reported diboronate glucose sensors include architectures of two phenylboronic acids attached to an aryl core via charged ammonium linkers. In a variation on this approach, the DiPBA motif explored here has introduced adjacent charge via pyridine-based phenylboronic acid structures (FIG. 1B). Besides conserving adjacent positive charge, the topology of this novel design was also intended to afford a more rigid pocket for simultaneous glucose binding by both boronates (FIG. 2B). Details for the synthesis and molecular characterization of this novel DiPBA group, along with all other synthetic small molecules and macromers, are reported in the Online Supporting Information. As a control for this glucose-binding motif, a single pyridine-PBA (PyPBA) was also synthesized. DiPBA and PyPBA motifs were compared in this work to a fluorine-substituted PBA motif (FPBA) that has been routinely reported in glucose-responsive materials and therapeutic constructs.

[2] = Isothermal titration calorimetry (ITC), glucose binding; settings: for Keq for binding to glucose: 298 K, pH 7.4 PBS
Description: (§1) The binding affinities (Keq) between different small molecule PBAs and model analytes (FIG. 2) were measured through isothermal titration calorimetry (ITC). All titration experiments were performed at 298 K on a PEAQ-ITC calorimeter (MicroCal, Inc.) in degassed pH 7.4 PBS buffer, using a 38 μL syringe and 200 μL cells and consisting of 19 injections. The measurements were performed by titrating glucose, fructose, sodium lactate, or Diolsm from the syringe into a solution of small molecule variants of DiPBAsm, PyPBAsm, or FPBAsm loaded in the cell. In all titration experiments, the cell concentration was 1 mM, while the analyte concentrations in the syringe were varied according to experimental optimization. All raw data were corrected by subtraction of a dilution measurement of the titrated analytes into buffer and were then analyzed and graphed using the integrated public-domain software packages of NIPIC, SEDPHAT, and GUSSI according to a published protocol. See Brautigam et al., Nat. Protoc. 11(5): 882-894 (2016).
(§2) To first quantify the affinities of binding for these different PBA motifs to glucose, related analytes, and model diols, a set of small molecules (FIG. 2) were synthesized for isothermal titration calorimetry (ITC) studies. […] By comparison, the commonly used FPBA motif had Keq for glucose binding of only 8.6 M^−1. […] Accordingly, concerns over low-affinity glucose-binding and poor glucose selectivity of traditional PBAs are supported by these ITC data, with both issues seemingly overcome using DiPBA chemistry. […] Finally, to explore the likely outcomes of using each of these PBA motifs in the context of dynamic-covalent networks a model diol (GdL-Diol) was prepared from reaction of glucono-δ-lactone (GdL) with benzylamine. The Keq of binding for each PBA motif to this model diol were nearly identical (˜5×10^3 M^−1); this finding confirms similar 1:1 binding stoichiometry between all three PBA chemistries studied here and the GdL-derived diol chemistry commonly used in preparing dynamic-covalent PBA-diol networks.

[3] = Isothermal titration calorimetry (ITC), fructose binding
Description: as §1, §2

[4] = Isothermal titration calorimetry (ITC), lactate binding
Description: as §1, §2

[5] = test system: streptozotocin (STZ)-induced diabetic mice; experiment: Blood glucose control in vivo with glucose tolerance tests; design: species or system male C57BL6/J mice; settings: free insulin 4 IU/kg
Description: To evaluate the performance hydrogels for blood glucose control, male C57BL6/J mice (8 weeks old, ˜25 g/mouse; Jackson Laboratory) were induced to be insulin deficient using streptozotocin (STZ). Mice were fasted for 4 h, following which a single intraperitoneal (i.p.) injection of STZ at a dose of 150 mg/kg was administered. Following an additional 30 min fast, food was returned. Seven days following STZ treatment, insulin-deficient diabetes was verified using hand-held blood glucose meters (CVS brand) with unfasted blood glucose (BG) levels ensured to be above 600 mg/dL for study inclusion. Mice were then fasted for 12 h, and those with BG >550 mg/dL were randomly divided into 4 groups (n=5-6/group). […] BG level were continuously monitored for 3 h after treatment. […] BG were subsequently monitored for 3 h. […] Areas under the curve (AUC) were calculated using the trapezoidal rule and statistical analyses were performed to compare DiPBA and FPBA treatment groups using GraphPad Prism v9.0, with significance obtained using a Student's t-test. […] Glucose levels were monitored over time using handheld glucometers (FIG. 11B). […]

pKa1 [1]	pKa2 [1]	glucose affinity relative to a traditional PBA motif (times higher) [2] [times]	Keq for binding to glucose [2] [M⁻¹]	fructose binding compared to FPBA / traditional PBA [3]	Keq for glucose relative to that for fructose (times higher) ([3]; pH 7.4 PBS) [times]	lactate binding compared to FPBA / traditional PBA [4]	Keq for glucose relative to that for lactate (times higher) ([4]; pH 7.4 PBS) [times]	pKa ([1]; DI water titrated with 0.005 M NaOH)	Compound	blood glucose response to first i.p. glucose tolerance test ([5]; GTT 1.25 g/kg glucose at 180 min)	time to blood glucose nadir ([5]; s.c.) [h]
4.53	7.45	150	1295	reduced	1.7	reduced	29		COC(=O)c1cc(C[n+]2cccc(B(O)O)c2)ccc1C[n+]1cccc(B(O)O)c1 [DiPBA]		
			164.7	reduced		reduced		4.41	COC(=O)c1cccc(C[n+]2cccc(B(O)O)c2)c1 [PyPBA]		
									insulin: Recombinant Human Insulin, free insulin control, 4 IU/kg s.c.	dramatically increased blood glucose without any subsequent correction	~1
